In patent US20100168085A1, “Dopamine and agonists and antagonists thereof for modulation of suppressive activity of CD4+CD25+ regulatory T cells” (YESA RESEARCH AND DEVELOPMENT CO. LTD. at the Weizmann …, priority 2003, published 2010):
Marks after values point to notes of the source that are not given here.

Assays:
Foxp3 expression in Treg = settings: 2 h exposure, analysed after 30 min or 24 h
Text: (§1) (xx) Polymerase chain reaction (PCR). Total RNA was purified with the RNeasy Mini Kit (Qiagen, Germantown, Md.) and transcribed into cDNA using poly dT primers. For PCR the following primers were used: […]

CCR-4 mRNA in Treg = settings: 2 h with dopamine
Text: as §1

[1] = tested on: adhesion of Treg and Teff to fibronectin
Experimental: (§2) One of the main features of T cells is their ability to migrate to tissues in need of rescue or repair [such as diseased or damaged CNS (Hickey, 1999; Flugel et al., 2001). […] We therefore incubated Treg with dopamine for 2 h and then examined their adhesion to chondroitin sulfate proteoglycans (CSPG), extracellular matrix proteins often associated with injured tissues (Jones et al., 2003).

[2] = tested on: CD44 expression in Treg and Teff
Experimental: (§3) To verify that the effect of dopamine on adhesion of Treg is exerted through the ERK1/2 pathway, we incubated Treg with the ERK1/2 signaling pathway inhibitor PD98059 before carrying out the adhesion assay. […] Since interaction of T cells with CSPG is mediated in part by the CD44 receptor (Henke et al., 1996), and in light of the known dependence of CD44 expression on the ERK signaling pathway, it was conceivable that dopamine might affect the expression of CD44 in Treg.

[3] = tested on: LFA-1, I-CAM, and V-CAM in Treg; settings: data not shown
Experimental: as §3

[4] = tested on: adhesion of Treg and Teff to chondroitin sulfate proteoglycans (CSPG); assay: T cell adhesion to CSPG; type: cell-based, mouse
Experimental: (xiii) T cell adhesion. Adhesion of activated CD4^+CD25^+ and CD4^+CD25^− T cells to CSPG was analyzed as previously described (23). Briefly, flat-bottomed microtiter (96-well) plates were pre-coated with CSPG (1 μg/well, 40 min, 37° C.). ^51Cr-labeled T cells were left untreated or were pre-incubated (30 min, 37° C.) with dopamine or the specified agonist or antagonist (10^−5M). The cells (10^5 cells in 100 μL of RPMI containing 0.1% BSA) were then added to the CSPG-coated wells, incubated (30 min, 37° C.), and washed. Adherent cells were lysed and the resulting supernatants were removed and counted in a γ-counter. Results were expressed as the mean percentage of the total population before adhesion of bound T cells from quadruplicate wells for each experimental group.
as §2, §3

solid tumor cells M2R = settings: Treg 2×10^6 cells exposed to dopamine 10^−5 M
Text: In another experiment, mice (n=10) were inoculated with solid tumor cells M2R, and received an immediate injection of Treg (2×10^6 cells) with and without exposure to dopamine (10^−5M). Control animals (n=10) received an injection of vehicle (PBS) following cancer cells inoculation.

CTLA-4 on Treg = assay: FACS analysis of CTLA-4 expression; type: cell-based, mouse; settings: Treg activated 24 h, 2 h with compound, stained 24 h later
Experimental: (vii) FACS analysis of CTLA-4-expressing CD4^+ T cells. Cells were immunostained according to the manufacturer's instructions, resuspended in 0.4 mL of 1% paraformaldehyde, and analyzed by FACSort (Becton-Dickinson), with 10,000 events scored. […] The cells were scored from a region defined according to physical parameters that indicate the size (forward scatter) and granularity (side scatter) of lymphocytes. CD4^+ lymphocytes were then gated for analysis of CTLA-4 expression.
To gain further insight into the mechanism whereby dopamine affects Treg activity we examined CTLA-4, a molecule characteristic of Treg (Im et al., 2001).

[5] = tested on: migration of Treg towards MDC (CCL22)
Experimental: The migration of T cells across polycarbonate filters (pore size 5 μm, diameter 6.5 mm) towards SDF-1 and MDC (CCL22) was assayed in 24-well Transwell chambers (Costar, Corning, Corning, N.Y.). T lymphocytes (1.67×10^6 cells/mL) were suspended in RPMI/0.1% BSA, and 150 μL of the cell suspension was added to the upper chamber after incubation with or without dopamine (90 min, 37° C.). Chemokines were added to the lower chamber at concentrations of 1 μg/mL SDF-1 (CytoLab, Israel) and 0.25 μg/mL MDC (R&D Systems). The plates were incubated for 90 min at 37° C. in 9.5% CO2. […] The numbers of migrating T cells were measured by flow cytometer acquisition for a fixed time (60 s). To calculate specific migration, the number of cells in each subpopulation in the absence of chemokine was subtracted from the number in the corresponding cell subpopulation that migrated in the presence of chemokines. The number of migrating CD4^+CD25^+ T cells was calculated as a percentage of the total T cell population before migration. For migration of purified population we used a similar protocol.
We therefore examined whether exposure to dopamine would also affect Treg migration. For this experiment we used a normal population of CD4^+ T cells, of which Treg (CD4^+CD25^+) accounts for approximately 11% (FIG. 4e).
To examine the direct effect of dopamine on the migration of Treg, we assayed the effect of dopamine on the migration of purified Treg towards MDC. The migratory Treg were stained for CD4 to ensure that cell debris and aggregates would not be counted among them.

[6] = tested on: mice, glutamate-induced retinal ganglion cell death; assay: Intravitreal glutamate toxicity, retinal ganglion cell survival; type: in vivo, mouse
Experimental: (iii) Intravitreal glutamate injection. The right eyes of anesthetized mice were punctured with a 27-gauge needle in the upper part of the sclera, and a 10-μL Hamilton syringe with a 30-gauge needle was inserted as far as the vitreal body. A total volume of 1 μl, of L-glutamate (400 nmol) dissolved in saline was injected into the eye.
(iv) Retrograde labeling of retinal ganglion cells. Mice were anesthetized and placed in a stereotactic device. The skull was exposed and kept dry and clean. The bregma was identified and marked. The designated point of injection was at a depth of 2 mm from the brain surface, 2.92 mm behind the bregma in the anteroposterior axis and 0.5 mm lateral to the midline. A window was drilled in the scalp above the designated coordinates in the right and left hemispheres. The neurotracer dye FluoroGold (5% solution in saline; Fluorochrome, Denver, Colo.) was applied (1 μL, at a rate of 0.5 μL/min in each hemisphere) using a Hamilton syringe, and the skin over the wound was sutured.
(xxi) Assessment of mouse retinal ganglion cell survival. Mice were given a lethal dose of pentobarbitone (170 mg/kg). Their eyes were enucleated and the retinas were detached and prepared as flattened whole mounts in 4% paraformaldehyde solution. Labeled cells from 4-6 selected fields of identical size (0.7 mm^2) were counted. The selected fields were located at approximately the same distance from the optic disk (0.3 mm) to overcome the variation in RGC density as a function of distance from the optic disk. Fields were counted under the fluorescence microscope (magnification ×800) by observers blinded to the identity of the retinas. The average number of RGCs per field in each retina was calculated.
Injection of glutamate into the eyes of adult mice causes retinal ganglion cell death that is measurable 1 week after the injection (Mizrahi et al., 2002; Schori et al., 2001a; Katayama et al., 1990). We injected Balb/c mice intraperitoneally (i.p.) with the dopamine, or its specific D1-type agonist SKF-38393 (3.3 mg/kg), or its specific D1-type antagonist SCH-23390 (3 mg/kg), immediately after their exposure to glutamate toxicity. We also injected SCID Balb/c mice with SKF-38393 (3.3 mg/kg) immediately after glutamate intoxication.
Immediately after glutamate intoxication mice were systemically injected with the indicated drugs. Neuronal survival was determined ten days later (see Materials and Methods). The results are expressed by changes (in percentage) in neuronal survival in treated mice relative to untreated mice. Each value represents a mean±SEM of a group of at least 5 animals, and each experiment was performed at least twice, independently. Asterisks (***, P<0.001; **, P<0.01) indicate statistical significance of the presented data from a single experiment using a Student's T-test statistical analysis. (NT—not tested; ns—no statistical significance).

## NCCc1ccc(O)c(O)c1 [dopamine, 3,4-dihydroxyphenethylamine]
Foxp3 expression in Treg
  Foxp3 expression in Treg: no significant change
CCR-4 mRNA in Treg
  Expression of CCR-4 in Treg: decreased
[1]
  Adhesion of Teff to fibronectin: slight increase
  Adhesion of Treg to fibronectin: no effect
[2]; activated 24 h, 2 h with dopamine
  CD44 immunoreactivity in Treg: decreased CD44 immunoreactivity
[2]; after incubation with dopamine
  CD44 expression in Teff: not affected
[3]
  LFA-1, I-CAM, V-CAM in Treg: did not show any dopamine-related changes
[4]
  Adhesion of Teff to CSPG: slight, nonsignificant effect
[4]; dopamine 10^−9-10^−5 M, concentration-dependent, agonist 10^−5 M
  Adhesion of Treg to CSPG: significantly decreased
Solid tumor cells M2R
  Tumor development in mice injected with Treg exposed to dopamine: did not differ from control mice
CTLA-4 on Treg
  CTLA-4 expression on Treg: slightly but consistently decreased
[5]
  Migration of purified Treg towards MDC: almost completely abolished
[5]; after exposure of CD4+ population to dopamine, 17% without dopamine
  Treg (CD4+CD25+) share of CD4+ cells migrating towards MDC: approximately 10%
[5]; data not shown
  Migration of Teff: no effect
[6]; Balb/c, single i.p. injection, dopamine 0.4 mg/kg, SKF-38393 3.3 mg/kg
  Increase in neuronal survival relative to PBS-treated glutamate-injected controls: 18±2.5%
[6]; Wild type mice, systemic injection immediately after glutamate intoxication
  Changes in neuronal survival in treated relative to untreated mice (mean±SEM): 18 ± 2.5*** percentage
